The record followed here is patent publication US11464770B2, “Anticancer pharmaceutical composition” (NATIONAL CANCER CENTER, priority 2016, dated 2022).

Where two headings read alike, the source gives them in different places.

The test system of experiment [1] is brain cancer cell lines. The experiment can be described thus: Cell based assay, cell viability (CellTiter-Glo), brain cancer cell lines. Particulars: Homo sapiens.
The subject of experiment [2] is cervical carcinoma cell lines. As to the kind of experiment: Cell based assay, cell viability (CellTiter-Glo), cervical carcinoma cell lines. Particulars: Homo sapiens; HeLa cells.
In experiment [3] the test system is blood cancer cell lines (e.g. HL-60, Jurkat, Raji, Ramos, Daudi, MOLT-4). The experiment can be described thus: Cell based assay, cell viability (CellTiter-Glo), blood cancer cell lines. Particulars: Homo sapiens. Summed up:
(§1)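 Luminescent ATP assay quantified surviving cells after three days of treatment. Compound was applied at final concentrations of 0 to 2 μM, starting 24 h after cells were seeded.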

Experiment [4] has as its system pancreatic cancer cell lines (e.g. MIA PaCa-2). As to the kind of experiment: Cell based assay, cell viability (CellTiter-Glo), pancreatic cancer cell lines. The settings on record: Homo sapiens. The gist of the method:
as §1

Experiment [5] has as its system renal cancer cell lines. The experiment can be described thus: Cell based assay, cell viability (CellTiter-Glo), renal cancer cell lines. Particulars: Homo sapiens; ACHN cells. Summed up: as §1
Setting [6] is: U138-MG, U-138 MG cell line, read-out: IC50, Brain cancer cell line U-138 MG.
The mark [7] stands for this setting: T98G cell line, read-out: IC50, Brain cancer cell line T98G.
Setting [8] is: U-251 MG cell line, read-out: IC50, Brain cancer cell line U-251 MG.
[9] abbreviates: MV4-11, blood cancer cell line MV-4-11, 72 hours, read-out: IC50, MV-4-11.
[10] abbreviates: blood cancer cell line Daudi, 72 hours, read-out: IC50, Daudi.
The mark [11] stands for this setting: blood cancer cell line HL-60, 72 hours, read-out: IC50, HL-60.
The mark [12] stands for this setting: blood cancer cell line Jurkat, 72 hours, read-out: IC50, Jurkat.
The mark [13] stands for this setting: blood cancer cell line MOLT-4, 72 hours, read-out: IC50, MOLT-4.
The mark [14] stands for this setting: blood cancer cell line Raji, 72 hours, read-out: IC50, Raji.
Where [15] appears, read: blood cancer cell line Ramos (RA 1), 72 hours, read-out: IC50, Ramos (RA 1).
The mark [16] stands for this setting: blood cancer cell line U-937, 72 hours, read-out: IC50, U-937.
Where [17] appears, read: pancreatic cancer cell line AsPC-1, 72 hours, read-out: IC50, AsPC-1.
Setting [18] is: pancreatic cancer cell line BxPC-3, 72 hours, read-out: IC50, BxPC-3.
[19] abbreviates: pancreatic cancer cell line CFPAC-1, 72 hours, read-out: IC50, CFPAC-1.
The mark [20] stands for this setting: pancreatic cancer cell line Capan-1, 72 hours, read-out: IC50, Capan-1.
Setting [21] is: pancreatic cancer cell line Capan-2, 72 hours, read-out: IC50, Capan-2.
Where [22] appears, read: pancreatic cancer cell line MIA PaCa-2, 72 hours, read-out: IC50, MIA PaCa-2.
Setting [23] is: pancreatic cancer cell line PANC-1, 72 hours, read-out: IC50, PANC-1.

On to `CSc1c(C(C)=O)c(=O)c2c(Cl)ccc(Br)c2n1S(C)(=O)=O` [Compound 35, 3-acetyl-8-bromo-5-chloro-1-(methylsulfonyl)-2-(methylthio)quinolin-4(1H)-one], for which the IC50 in experiment [1] (setting [6]) is more than 10000 nM; in experiment [1] (setting [7]) it was more than 10000 nM; in experiment [1] (setting [8]), more than 2000 nM; in experiment [2], more than 10000 nM; in experiment [3] (setting [9]), more than 2000 nM; in experiment [3] (setting [10]), more than 2000 nM. The IC50 in experiment [3] (setting [11]), in experiment [3] (setting [12]), in experiment [3] (setting [13]), in experiment [3] (setting [14]), in experiment [3] (setting [15]) and in experiment [3] (setting [16]) was more than 2000 nM in each case. The 50% inhibitory concentration (IC50) in experiment [4] (setting [17]) is more than 2000 nM; in experiment [4] (setting [18]), more than 2000 nM; in experiment [4] (setting [19]), more than 10000 nM; in experiment [4] (setting [20]), more than 2000 nM; in experiment [4] (setting [21]), more than 2000 nM; in experiment [4] (setting [22]) it was more than 2000 nM. Further, the IC50 in experiment [4] (setting [23]) and in experiment [5] was more than 2000 nM each time.

With `CC(=O)c1c([S+](C)[O-])n(S(=O)(=O)C(F)(F)F)c2c(Br)ccc(Cl)c2c1=O` (stereo not shown) [Compound 36, 3-acetyl-8-bromo-5-chloro-2-(methylsulfinyl)-1-((trifluoromethyl)sulfonyl)quinolin-4(1H)-one], the IC50 in experiment [1] (setting [6]) was more than 2000 nM; in experiment [1] (setting [7]), more than 10000 nM; in experiment [1] (setting [8]), more than 2000 nM; in experiment [2], more than 10000 nM; in experiment [3] (setting [9]) it was more than 2000 nM; in experiment [3] (setting [10]), more than 2000 nM. Also, the 50% inhibitory concentration (IC50) in experiment [3] (setting [11]), in experiment [3] (setting [12]), in experiment [3] (setting [13]), in experiment [3] (setting [14]), in experiment [3] (setting [15]) and in experiment [3] (setting [16]) was more than 2000 nM each time. For the same compound, the IC50 in experiment [4] (setting [17]) was more than 2000 nM; in experiment [4] (setting [18]), more than 2000 nM; in experiment [4] (setting [19]), more than 10000 nM; in experiment [4] (setting [20]), more than 2000 nM; in experiment [4] (setting [21]), more than 2000 nM; in experiment [4] (setting [22]) it was more than 2000 nM. For the same compound, the IC50 in experiment [4] (setting [23]) and in experiment [5] was more than 2000 nM each time.

In the case of `CSc1c(C(C)=O)c(=O)c2c(Cl)ccc(Br)c2n1S(=O)(=O)c1ccc(Cl)cc1` [Compound 37, 3-acetyl-8-bromo-5-chloro-1-((4-chlorophenyl)sulfonyl)-2-(methylthio)quinolin-4(1H)-one], the IC50 in experiment [1] (setting [6]) is more than 10000 nM; in experiment [1] (setting [7]), more than 10000 nM; in experiment [1] (setting [8]), more than 2000 nM; in experiment [2] it was more than 10000 nM; in experiment [3] (setting [9]), more than 2000 nM; in experiment [3] (setting [10]), more than 2000 nM. The IC50 in experiment [3] (setting [11]), in experiment [3] (setting [12]), in experiment [3] (setting [13]), in experiment [3] (setting [14]), in experiment [3] (setting [15]) and in experiment [3] (setting [16]) was more than 2000 nM in each case. In addition, the IC50 is more than 2000 nM in experiment [4] (setting [17]); more than 2000 nM in experiment [4] (setting [18]); more than 10000 nM in experiment [4] (setting [19]); more than 2000 nM in experiment [4] (setting [20]); more than 2000 nM in experiment [4] (setting [21]); more than 2000 nM in experiment [4] (setting [22]). For the same compound, the half-inhibitory concentration (IC50) in experiment [4] (setting [23]) and in experiment [5] was more than 2000 nM in each case.

Consider `CSc1c(C(C)=O)c(=O)c2c(Cl)ccc(Br)c2n1S(=O)(=O)c1ccc([N+](=O)[O-])cc1` [Compound 38, 3-acetyl-8-bromo-5-chloro-2-(methylthio)-1-((4-nitrophenyl)sulfonyl)quinolin-4(1H)-one], for which the IC50 is more than 10000 nM in experiment [1] (setting [6]); more than 10000 nM in experiment [1] (setting [7]); more than 2000 nM in experiment [1] (setting [8]); more than 10000 nM in experiment [2]; more than 2000 nM in experiment [3] (setting [9]); more than 2000 nM in experiment [3] (setting [10]). Besides, the IC50 in experiment [3] (setting [11]), in experiment [3] (setting [12]), in experiment [3] (setting [13]), in experiment [3] (setting [14]), in experiment [3] (setting [15]) and in experiment [3] (setting [16]) was more than 2000 nM each time. For the same compound, the IC50 is more than 2000 nM in experiment [4] (setting [17]); more than 2000 nM in experiment [4] (setting [18]); more than 10000 nM in experiment [4] (setting [19]); more than 2000 nM in experiment [4] (setting [20]); more than 2000 nM in experiment [4] (setting [21]); more than 2000 nM in experiment [4] (setting [22]). The IC50 in experiment [4] (setting [23]) and in experiment [5] was more than 2000 nM each time.

As for `CCS(=O)(=O)n1c([S+](C)[O-])c(C(C)=O)c(=O)c2c(Cl)ccc(Br)c21` (stereo not shown) [Compound 39, 3-acetyl-8-bromo-5-chloro-1-(ethylsulfonyl)-2-(methylsulfinyl)quinolin-4(1H)-one], the 50% inhibitory concentration (IC50) in experiment [1] (setting [6]) was more than 10000 nM; in experiment [1] (setting [7]) it was more than 10000 nM; in experiment [1] (setting [8]) it was more than 2000 nM; in experiment [2], more than 10000 nM; in experiment [3] (setting [9]) it was more than 2000 nM; in experiment [3] (setting [10]) it was more than 2000 nM. Besides, the IC50 in experiment [3] (setting [11]), in experiment [3] (setting [12]), in experiment [3] (setting [13]), in experiment [3] (setting [14]), in experiment [3] (setting [15]) and in experiment [3] (setting [16]) was more than 2000 nM throughout. In addition, the IC50 in experiment [4] (setting [17]) is more than 2000 nM; in experiment [4] (setting [18]), more than 2000 nM; in experiment [4] (setting [19]), more than 10000 nM; in experiment [4] (setting [20]), more than 2000 nM; in experiment [4] (setting [21]), more than 2000 nM; in experiment [4] (setting [22]), more than 2000 nM. Besides, the IC50 in experiment [4] (setting [23]) and in experiment [5] was more than 2000 nM throughout.
